According to patent publication US10189777B2, “Benzenesulfonamido and related compounds for use as agonists of RORγ and the treatment of disease” (Lycera Corporation, priority 2014, dated 2019):

Biological target: T1, HIS-tagged RORγ-LBD protein (Homo sapiens, UniProt P51449)
T1 construct: made in house; host or cells: SF9 cells, baculovirus expression system; the lysate was used
T1 sequence (P51449 269-508 limits assumed): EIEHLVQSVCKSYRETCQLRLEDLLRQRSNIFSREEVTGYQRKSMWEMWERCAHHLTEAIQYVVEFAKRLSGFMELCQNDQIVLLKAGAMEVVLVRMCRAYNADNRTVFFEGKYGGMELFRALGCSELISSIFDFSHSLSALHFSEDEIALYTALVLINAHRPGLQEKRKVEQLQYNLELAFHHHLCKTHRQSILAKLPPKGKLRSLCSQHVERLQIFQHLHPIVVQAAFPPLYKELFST
Assay: RORγ-Ligand Binding Domain (LBD) TR-FRET Assay
Assay type: biochemical
Details: for TR-FRET Assay Max Response: upper plateau of 4-parameter fit, signal in the absence of ursolic acid or test compound set as 100; for EC50: with 2 μM RORγ antagonist ursolic acid, biotinylated SRC1 LXXLL peptide, ratio 665 nm/615 nm
Method: Exemplary compounds from the above Examples were tested for ability to increase RORγ activity using (i) a RORγ-Ligand Binding Domain (LBD) TR-FRET Assay, and (ii) a Gal4-RORγ Luciferase Reporter Assay in HEK-293T Cells. Assay procedures and results are described below.
Part I—Procedures for RORγ-Ligand Binding Domain TR-FRET Assay
HIS-tagged RORγ-LBD protein was expressed in SF9 cells using a baculovirus expression system. The lysate was diluted in assay buffer (50 mM Tris pH 7.0, 50 mM KCl, 1 mM EDTA, 0.1 mM DTT, 0.01% BSA) to obtain RORγ-LBD final concentration of −3 nM in a 384-well assay plate (need to titrate for each batch of protein).
A stock of biotinylated-LXXLL peptide from coactivator SRC1 (Biotin-[…]) was prepared in assay buffer and added to each well (200 nM final concentration). A solution of Europium tagged anti-HIS antibody (0.6 nM final concentration) and APC-conjugated streptavidin (30 nM final concentration) were also added to each well. RORγ antagonist ursolic acid was also included at a final concentration of 2 μM. Compounds were diluted in DMSO and further diluted in assay buffer with a final DMSO concentration at 1%.
The final assay mixture was incubated overnight at 4° C. or 2 hours at room temperature, and the fluorescence signal was measured on an Envision plate reader: (Excitation filter=340 nm; APC emission=665 nm; Europium emission=615 nm; dichroic mirror=D400/D630; delay time=100 μs, integration time=200 μs). 50% Effective concentration (EC50) values for test compounds were calculated from the quotient of the fluorescence signal at 665 nm divided by the fluorescence signal at 615 nm. The quotient of the fluorescence signals in the absence of ursolic acid or test compound is set as 100. Max Response is defined as the upper plateau in the signal as determined by line-fit using a 4-parameter logistic model in PRISM (GraphPad).

SMILES	TR-FRET Assay Max Response	EC50
CCC(c1cccc(OCc2c(F)cccc2Cl)c1)S(=O)(=O)c1ccc(Cl)cc1 (stereo not shown)	*** (The symbol “***” indicates a value in the range of greater than 150 to 200)	< 0.5 µM
CCC(c1cccc(OCc2c(F)cccc2Cl)c1)S(=O)(=O)c1cccc(C(F)(F)F)c1 (stereo not shown)	*** (The symbol “***” indicates a value in the range of greater than 150 to 200)	< 0.5 µM
CCN(c1cccc(OCc2cccc(Cl)c2Cl)c1)S(=O)(=O)c1cccc(C(F)(F)F)c1		> 10 µM
CCN(c1cccc(OCc2ccc(Cl)cc2Cl)c1)S(=O)(=O)c1cccc(C(F)(F)F)c1	** (The symbol “**” indicates a value in the range of greater than 90 to 150)	> 10 µM
CCN(c1cccc(OCc2ccccc2)c1)S(=O)(=O)c1cccc(C(F)(F)F)c1	*** (The symbol “***” indicates a value in the range of greater than 150 to 200)	0.5 to 5 µM
CCC(c1ccc(OCc2ccccc2)cc1)S(=O)(=O)c1cccc(C(F)(F)F)c1 (stereo not shown)	** (The symbol “**” indicates a value in the range of greater than 90 to 150)	0.5 to 5 µM
CCN(c1cccc(COc2c(F)cccc2Cl)c1)S(=O)(=O)c1cccc(C(F)(F)F)c1	** (The symbol “**” indicates a value in the range of greater than 90 to 150)	< 0.5 µM
CCN(c1cccc(C(C)Oc2ccccc2Cl)c1)S(=O)(=O)c1cccc(C(F)(F)F)c1 (stereo not shown)	** (The symbol “**” indicates a value in the range of greater than 90 to 150)	> 10 µM
CCN(c1cccc(OCC2CCCCC2)c1)S(=O)(=O)c1cccc(C(F)(F)F)c1	**** (The symbol “****” indicates a value greater than 200)	< 0.5 µM
CCN(c1cccc(CNCc2ccccc2Cl)c1)S(=O)(=O)c1cccc(C(F)(F)F)c1	** (The symbol “**” indicates a value in the range of greater than 90 to 150)	> 10 µM
CCN(c1cccc(OCc2cccc(C(F)(F)F)c2Cl)c1)S(=O)(=O)c1cccc(C(F)(F)F)c1		> 10 µM
CCOc1nn(CC)cc1S(=O)(=O)N(CC)c1cccc(OCc2ccccc2)c1		> 10 µM
CCN(c1cccc(OC(C)c2c(F)cccc2Cl)c1)S(=O)(=O)c1cccc(C(F)(F)F)c1 (stereo not shown)		> 10 µM
CCN(Cc1cccc(N(CC)S(=O)(=O)c2cccc(C(F)(F)F)c2)c1)c1ccccc1Cl	** (The symbol “**” indicates a value in the range of greater than 90 to 150)	0.5 to 5 µM
CCN(c1cccc(OCc2c(F)cccc2Cl)c1)S(=O)(=O)c1cccc(C(F)(F)F)c1	**** (The symbol “****” indicates a value greater than 200)	< 0.5 µM
CCN(c1cccc(COC2(C)CCCCC2)c1)S(=O)(=O)c1cccc(C(F)(F)F)c1	** (The symbol “**” indicates a value in the range of greater than 90 to 150)	< 0.5 µM
CCN(c1cccc(COC2CCCCC2C(F)(F)F)c1)S(=O)(=O)c1cccc(C(F)(F)F)c1 (stereo not shown)	** (The symbol “**” indicates a value in the range of greater than 90 to 150)	0.5 to 5 µM

SMILES	TR-FRET Assay Max Response	EC50
CCN(c1cccc(COC2CCCCC2)c1)S(=O)(=O)c1cccc(C(F)(F)F)c1	** (The symbol “**” indicates a value in the range of greater than 90 to 150)	0.5 to 5 µM
CCN(c1cccc(OC2CCc3ccccc32)c1)S(=O)(=O)c1cccc(C(F)(F)F)c1 (stereo not shown)	**** (The symbol “****” indicates a value greater than 200)	< 0.5 µM
CCN(c1cccc(CN2CCc3ccccc32)c1)S(=O)(=O)c1cccc(C(F)(F)F)c1	** (The symbol “**” indicates a value in the range of greater than 90 to 150)	0.5 to 5 µM
CCN(c1cccc(OCc2cc(C(F)(F)F)ccc2Cl)c1)S(=O)(=O)c1cccc(C(F)(F)F)c1	*** (The symbol “***” indicates a value in the range of greater than 150 to 200)	> 10 µM
CCN(c1cccc(CNc2ccccc2Cl)c1)S(=O)(=O)c1cccc(C(F)(F)F)c1	** (The symbol “**” indicates a value in the range of greater than 90 to 150)	> 10 µM
CCN(c1cccc(Cn2ncc3ccccc32)c1)S(=O)(=O)c1cccc(C(F)(F)F)c1	** (The symbol “**” indicates a value in the range of greater than 90 to 150)	> 10 µM
CCN(c1cccc(C(C)Oc2c(F)cccc2Cl)c1)S(=O)(=O)c1cccc(C(F)(F)F)c1 (stereo not shown)	** (The symbol “**” indicates a value in the range of greater than 90 to 150)	< 0.5 µM
CCN(c1cccc(CNC2CCCCC2)c1)S(=O)(=O)c1cccc(C(F)(F)F)c1		> 10 µM
CCN(c1cccc(OCc2ccccc2F)c1)S(=O)(=O)c1cccc(C(F)(F)F)c1	*** (The symbol “***” indicates a value in the range of greater than 150 to 200)	< 0.5 µM
CCN(c1cccc(OC2Cc3ccccc3C2)c1)S(=O)(=O)c1cccc(C(F)(F)F)c1	*** (The symbol “***” indicates a value in the range of greater than 150 to 200)	0.5 to 5 µM
CCC(c1cccc(OCc2ccccc2)c1)S(=O)(=O)c1ccc(Cl)cc1 (stereo not shown)	* (The symbol “*” indicates a value in the range of 70 to 90)	> 10 µM
CCN(Cc1ccccc1Cl)c1cccc(N(CC)S(=O)(=O)c2cccc(C(F)(F)F)c2)c1	** (The symbol “**” indicates a value in the range of greater than 90 to 150)	> 10 µM
CCC(c1ccc(OCc2ccccc2)cc1)S(=O)(=O)c1ccc(Cl)cc1 (stereo not shown)	*** (The symbol “***” indicates a value in the range of greater than 150 to 200)	0.5 to 5 µM
CCN(c1cccc(OCCc2ccccc2)c1)S(=O)(=O)c1cccc(C(F)(F)F)c1	** (The symbol “**” indicates a value in the range of greater than 90 to 150)	> 10 µM
CCN(c1cccc(COc2ccccc2Cl)c1)S(=O)(=O)c1cccc(C(F)(F)F)c1	** (The symbol “**” indicates a value in the range of greater than 90 to 150)	0.5 to 5 µM
CCN(c1cccc(Cn2c(=O)oc3ccccc32)c1)S(=O)(=O)c1cccc(C(F)(F)F)c1	** (The symbol “**” indicates a value in the range of greater than 90 to 150)	> 10 µM
